The text below walks through data of article PMC10872402, “HTS discovery of PARP1-HPF1 complex inhibitors in cancer” (SLAS discovery : advancing life sciences R & D, 2023).

As usually defined, the IC50 is the midpoint of a concentration-inhibition curve.

The target in data set [1] is T1, PARP1–HPF1 complex (Homo sapiens, UniProt P09874+Q9NWY4).
T1 construct: made in house
Description: FP assay of PARP1–HPF1–DNA complex, dose response of hits from the 10,000 compound pilot HTS. It is filed as biochemical. The settings on record: dose response of HTS hits in duplicate; 10 nM PARP1, 100 nM HPF1, 15 min. On the procedure: A Revvity G3 Explorer collaborative robot equipped with a freezer containing the drug library, a Revvity Janus liquid handler, and a Revvity Envision was used to carry out the screen. A ChemBridge diversity library containing 10,000 compounds was used for screening. Two identical daughter plates (2 mM) were generated, one for HTS and one for cherry-picking hits identified from HTS. The drug library was maintained in a LiCONiC STX500-DF Deep Freezer at −20 °C with 80 % N2. Binding buffer (13 μL) with 0.04 % DMSO was added to columns 23 and 24 of 32 384-well plates (Corning 3575). Next, 24.5 μL binding buffer was added to all wells on the plates. Then, 0.5 μL of 2 mM stock solutions for each of the 10,000 compounds was added to separate wells, giving a final concentration of 20 μM, excluding columns 1, 2, 23, and 24. Afterwards, 12.5 μL premix (PARP1 – HPF1 – DNA, at 10 nM PARP1, 100 nM HPF1, and 5 nM FITC-labeled p18mer DNA) was added to all wells. Next, 12.5 μL of 2 mM NAD^+ was added to each well.
Dose response curves for the hits were performed using the same Revvity robot system as for the initial screen. Binding buffer (13 μL) with 0.04 % DMSO was added to columns 23 and 24 of 32 different Corning (Cat. No. 3575) plates. Next, 25 μL binding buffer was added to all wells on the plates. Cherry-picked compound plates generated from the compound source used in the initial HTS were used to add 1 compound per column from 20 to 160 nM in duplicate with 2x serial dilution using a Revvity FlexDrop iQ instrument. A 12.5 μL premix (PARP1 – HPF1 – DNA, as above) was added to all wells. Afterwards, 12.5 μL of 2 mM NAD^+ was added to each well and plates were incubated for 15 min at RT. The FP signal was read as above, and data for screened compounds was normalized between 100 % (positive control, […]) and 0 % (negative control, rows 1 and 2). Dose response curves were plotted and fit using GraphPad Prism with a non-linear regression analysis as described above.

The target in data set [2] is T1, PARP1–HPF1 complex. Description: FP assay of PARP1–HPF1–DNA complex, PARP-directed library screen. It is filed as biochemical. On the procedure: An Opentrons OT-2 robot was used for all the pipetting steps as described. First, 20 μL of binding buffer was placed into each well of the 384-well assay plate. Next, 10 μL of the pre-formed complex of PARP1 - HPF1 - DNA or PARP2 – HPF1 – DNA (prepared in binding buffer) was added to all wells. Next, 1 μL of the inhibitors from the 12-point dilution were added to the 384-well plate and was incubated with the protein - DNA for 30 min at room temperature (RT). The plate was then transferred to BMG Labtech CLARIOstar plate reader equipped with a syringe injector. The injector was used to add 10 μL of NAD^+ into all wells except for eight control wells. […] Final concentrations were 5 nM p18mer (fluorescein-labeled), 10 nM PARP1/2, 200 nM HPF1, 200 μM NAD^+, and 0.09 μM – 200 μM inhibitor. IC50 values were calculated using a nonlinear regression analysis (sigmoidal dose-response fitting with variable slope) with the following equation: Y = Bottom + (Top – Bottom)/(1 + 10(LOGIC50 – X) · HILL SLOPE) using GraphPad Prism.
We base our assay method on our previously described fluorescence polarization (FP) assay for measuring the activity of PARP1 [15]. […] (Fig. 2A). For the inhibition assay, the complex is incubated with potential inhibitors and the PARylation reaction is initiated by the addition of NAD^+. […]

The subject of data set [3] is PAR in the nucleus of SUM149PT cells. Description: PAR immunofluorescence in SUM149PT cells with MMS. It is filed as cell-based. The following applies: 10 and 12.5 μM, 5 h, 0.01 % MMS; for amount of PAR in the nucleus: p<0.05 for 145 and 88, p<0.001 for 4. On the procedure: 18,000 SUM149PT cells were seeded into a 96 well PhenoPlate (Revvity) and allowed to adhere overnight. Cells were then treated with the selected hits at a concentration of 10 or 12.5 μM and 0.01 % final concentration of MMS for 5 h. The medium was then aspirated, and cells were fixed with 4 % paraformaldehyde for 15 min at room temperature (RT). After washing twice with PBS, cells were incubated with 0.3 % Triton X-100 for 15 min followed by another washing step. To decrease unspecific binding of the antibodies, cells were blocked in 5 % milk for 30 min at RT. Afterwards, cells were incubated with the anti-PAR primary antibody at a 1:1000 dilution for 2 h at RT. Cells were washed again and incubated with a goat anti-mouse AlexaFluor 647 secondary antibody at a 1:500 dilution for […] at RT. Finally, cells were washed, stained with Hoechst 33342 (1:1000), and imaged using a 40x water objective on the Phenix Plus High-Content Screening (HCS) System (Revvity). Each bar graph is representative of two experiments, each with three replicates of whole-well analysis per condition. The reported data represents the average of each cell within the replicates, plotted with standard deviation error bars.

A further data set concerns SUM149PT tumor organoids. Description: Tumor organoid cytotoxicity, CellTiter-Glo 3D. It is filed as cell-based. The settings on record: Homo sapiens, 96 h, read-out: IC50 tumor organoid viability. On the procedure:
SUM149PT cells were plated at 2000 cells/well into 96-well Clear Round Bottom Ultra-Low Attachment plates (Cat. No. 7007, Corning, Corning, NY) in complete growth medium. Cell assay plates were centrifuged at 1000 RPM for 15 min to promote cellular aggregation, then 25 μL of cold Growth-Factor Reduced (GFR) Matrigel (10 %) was added per well for a final concentration of 2 %. […] Briefly, tumor organoids were transferred to 96-well CELLSTAR white solid bottom plates (Cat. No. 655083, Greiner Bio-One, Monroe, NC), 40 μL (1:1) of CellTiter-Glo 3D was added to each well and plates were then placed on an orbital shaker at 450 RPM for 45 min at room temperature. CellTiter-Glo 3D’s luminescence signal was assessed using the Envision microplate reader (Revvity, Waltham, MA) with a measurement time of 100 ms. The experiment was done with triplicate organoids per condition, and IC50.values were calculated as described above.
In general terms: Cellular ATP, detected with luciferase, serves as a proxy for viable cell number.

Another data set relates to cancer cells. Also on record: method as in PMID 35259019. The following applies: read-out: IC50 cytotoxic activity; cited from earlier work.

Values joined by “and” are separate entries in the source; they are usually repeats but may differ in a detail not shown here. Equal entries are not always repeated.

T1 sequence (P09874 whole entry): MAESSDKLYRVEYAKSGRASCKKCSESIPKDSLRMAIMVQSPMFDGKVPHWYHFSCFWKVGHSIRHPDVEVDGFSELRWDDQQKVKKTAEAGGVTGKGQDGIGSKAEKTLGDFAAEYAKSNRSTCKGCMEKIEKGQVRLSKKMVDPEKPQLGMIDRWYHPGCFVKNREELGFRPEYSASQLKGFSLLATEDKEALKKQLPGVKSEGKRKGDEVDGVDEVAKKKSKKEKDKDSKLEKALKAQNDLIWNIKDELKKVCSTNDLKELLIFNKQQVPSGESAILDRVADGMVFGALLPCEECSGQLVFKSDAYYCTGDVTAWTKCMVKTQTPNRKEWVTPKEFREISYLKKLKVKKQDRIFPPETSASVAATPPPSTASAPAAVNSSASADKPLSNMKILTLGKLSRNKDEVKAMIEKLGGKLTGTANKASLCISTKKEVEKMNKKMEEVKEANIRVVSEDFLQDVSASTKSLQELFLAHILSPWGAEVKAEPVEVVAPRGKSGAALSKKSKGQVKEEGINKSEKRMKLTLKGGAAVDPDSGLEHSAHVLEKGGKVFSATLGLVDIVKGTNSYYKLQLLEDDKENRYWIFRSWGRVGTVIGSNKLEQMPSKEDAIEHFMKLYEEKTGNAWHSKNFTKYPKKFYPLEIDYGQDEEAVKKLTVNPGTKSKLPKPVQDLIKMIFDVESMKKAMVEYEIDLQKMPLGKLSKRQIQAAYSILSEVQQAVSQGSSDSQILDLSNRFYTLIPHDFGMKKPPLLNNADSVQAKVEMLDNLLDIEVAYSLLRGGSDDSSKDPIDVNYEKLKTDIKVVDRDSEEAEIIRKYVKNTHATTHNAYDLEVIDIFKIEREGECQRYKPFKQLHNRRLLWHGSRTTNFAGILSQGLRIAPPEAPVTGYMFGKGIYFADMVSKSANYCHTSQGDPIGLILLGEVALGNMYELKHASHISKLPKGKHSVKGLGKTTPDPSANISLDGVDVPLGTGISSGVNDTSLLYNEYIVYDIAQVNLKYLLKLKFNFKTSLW
T1 sequence (Q9NWY4 whole entry): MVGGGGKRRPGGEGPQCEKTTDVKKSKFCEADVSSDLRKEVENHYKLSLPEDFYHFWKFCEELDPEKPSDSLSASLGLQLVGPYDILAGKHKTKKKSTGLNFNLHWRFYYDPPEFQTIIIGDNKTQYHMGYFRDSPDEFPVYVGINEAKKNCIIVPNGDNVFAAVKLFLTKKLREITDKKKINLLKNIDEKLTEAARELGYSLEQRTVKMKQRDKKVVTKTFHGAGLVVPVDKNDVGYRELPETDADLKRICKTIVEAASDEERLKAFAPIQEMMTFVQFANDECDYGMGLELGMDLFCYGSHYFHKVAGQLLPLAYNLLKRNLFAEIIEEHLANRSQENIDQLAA

The molecule `CCNCC#CCOc1ccc(Br)cc1` [compound 60] displayed an IC50 at PARP1–HPF1 complex [1] of 7.77 µM.

`NC(=O)c1ccccc1` [benzamide, reference compound] came in with an IC50 against PARP1–HPF1 complex [2] of 14 µM.

For `N#Cc1sc2nc(-c3ccc(F)cc3F)ccc2c1N` [compound 151], the concentration for half-maximal inhibition (IC50) against PARP1–HPF1 complex [1] turned out to be 40.7 µM.

Regarding `COc1cccc(-c2nc(CC(=O)Nc3ccc(C)c(C)c3)no2)c1` [compound 88], the IC50 on PARP1–HPF1 complex [1] stood at 13.5 µM. Also, in data set [3], the “inhibition of PARylation” value is given as “dose-dependent inhibition of PARylation” and the “amount of PAR in the nucleus” value is on record as “decreased the amount of PAR in the nucleus at the higher dose tested”.

`CCNCC#CCOc1cccc(C(F)(F)F)c1` [compound 89]: the IC50 on PARP1–HPF1 complex [1] amounted to 13.8 µM.

Consider `O=C(COc1ccccc1)c1cn(CC(=O)N2CCOCC2)c2ccccc12` [compound 4], for which the IC50 on PARP1–HPF1 complex [1] is ~1 µM and 1.07 µM. Also, in data set [3], the “inhibition of PARylation” value is “dose-dependent inhibition of PARylation” and the “amount of PAR in the nucleus” value was “reduced PAR at all doses”. Besides, the IC50 in the data set on SUM149PT tumor organoids was determined as 251 µM.

On to `CNCC#CCOc1ccc(Cl)c(C)c1` [compound 110], for which, at PARP1–HPF1 complex [1], inhibition was half-maximal at 20.4 µM (IC50).

In the case of `O=C(c1cc(Cc2n[nH]c(=O)c3ccccc23)ccc1F)N1CCN(C(=O)C2CC2)CC1` [olaparib, reference compound], the IC50 in the data set on SUM149PT tumor organoids was 85 µM; in the data set on cancer cells, greater than 50 µM.

Molecule `CCNC/C=C/COc1ccccc1OCC` [compound 116] yielded an IC50 on PARP1–HPF1 complex [1] of 22.6 µM.

At PARP1–HPF1 complex [1], `N#Cc1c(NC(=O)C#Cc2ccccc2)sc2c1CCC2` [compound 145] gave an IC50 of 36.8 µM. Further, in data set [3], the “inhibition of PARylation” value is “dose-dependent inhibition of PARylation” and the “amount of PAR in the nucleus” value is given as “decreased the amount of PAR in the nucleus at the higher dose tested”.
